Assay results as given in patent US8629132B2, “Kinase inhibitors” (Genosco, priority 2009, dated 2014).

Columns and labels:
PIM1 = molecular target: T1, PIM1 (Homo sapiens, UniProt P11309); assay: Kinase inhibition assay: PIM1; type: biochemical; details: at 1 μM concentration
T1 construct: Purified full-length human SYK, ZAP70, PIM1, PYK2; purchased Carna Biosciences
Method: (§1) Compounds of the present invention were tested for their capacity to inhibit a kinase panel which includes, but are not limited to, spleen tyrosine kinase (SYK), zeta-chain-associated protein kinase 70 (ZAP70), PTK2B protein tyrosine kinase 2 (PYK2), focal adhesion kinase (FAK), provirus integration of maloney kinase 1 (PIM1), rearranged during transfection kinase (RET), Fms-like tyrosine kinase 3 (FLT3), Janus kinase 2 (JAK2), and leucine-rich repeat kinase 2 (LRRK2).
(§2) Inhibition of SYK, ZAP70, PYK2, FAK, PIM1, RET, FLT3, JAK2 and LRRK2 Kinase Activity
Compounds of the invention were initially diluted to 10 mM in 100% DMSO (CALBIOCHEM™) for storage and made into kinase buffer solution to create a compound concentration ranging from 1 uM and 10 uM. Serial dilutions of compounds of the invention were dispensed into a 96-well plate (GREINER BIOSCIENCES™) at 6 μL each. Purified full-length human SYK, ZAP70, PIM1, PYK2 and truncated human FAK, RET, FLT3, JAK2, and LRRK2 (CARNA BIOSCIENCES™) were diluted in kinase buffer and added to the compound solutions and pre-incubated for 30 minutes at room temperature (1 hour for PYK2). […] The reaction mixture was incubated for 1 hour (2 hours for PYK2). Following the incubation, the stop solution made with EDTA, water, and Lance detection buffer ([…]™) was added (12μL each) to stop phosphorylation. […] Substrate phosphorylation was a function of the 665 nm emission measured following the addition of the detection solution and 50 minutes of incubation. The IC50 value of test compound was calculated at Gradpad Prism 5 unless specified otherwise.

JAK2 = JAK2 (Homo sapiens, UniProt O60674); assay: Kinase inhibition assay: JAK2; type: biochemical; design: truncated human FAK, RET, FLT3, JAK2, and LRRK2; purchased Carna Biosciences
FAK = molecular target: T2, FAK (Homo sapiens, UniProt Q05397); assay: Kinase inhibition assay: FAK; type: biochemical; details: at 1 μM concentration
T2 construct: truncated human FAK, RET, FLT3, JAK2, and LRRK2; purchased Carna Biosciences
Method: as §1, §2
Compounds of the invention were initially diluted to 10 mM in 100% DMSO (CALBIOCHEM™) for storage and made into kinase buffer solution to create a compound concentration ranging from 1 uM and 10 uM. Serial dilutions of compounds of the invention were dispensed into a 96-well plate (GREINER BIOSCIENCES™) at 6 μL each. Purified full-length human SYK, ZAP70, PIM1, PYK2 and truncated human FAK, RET, FLT3, JAK2, and LRRK2 (CARNA BIOSCIENCES™) were diluted in kinase buffer and added to the compound solutions and pre-incubated for 30 minutes at room temperature (1 hour for PYK2). […] The reaction mixture was incubated for 1 hour (2 hours for PYK2). Following the incubation, the stop solution made with EDTA, water, and Lance detection buffer ([…]™) was added (12μL each) to stop phosphorylation. […] The IC50 value of test compound was calculated at Gradpad Prism 5 unless specified otherwise.

[1] = tested on: TNF-α release in THP-1 cells; assay: SYK dependent TNF-α release assay (IgG stimulation); type: cell-based, human
Method: Compounds of the present invention are tested for their effects on TNF-α release in human acute monocytic leukimia cell line (THP-1) to illustrate potential efficacy at the cellular level. TNF-α is a cytokine involved in systemic inflammation and is a member of a group of cytokines that stimulate the acute phase reaction. The primary role of TNF-α is in the regulation of immune cells. TNF-α is known to induce apoptotic cell death and inflammation and to inhibit early tumorigenesis and viral replication. Dysregulation and, in particular, overproduction of TNF-α have been implicated in a variety of human diseases, autoimmune disease, inflammation, arthritis and cancer.
Production or release of TNF-α is controlled by type of stimulus to which the cell responds. SYK activity is involved in mediating TNF-α production. When stimulated by IgG, cells increase TNF-α production in a SYK dependent manner (i.e., the SYK dependent pathway). However, when stimulated by lipopolysaccharide (LPS), they produce TNF-α in a SYK independent manner.
Compounds of the invention were tested for their TNF-α release effect on THP-1 cells. For SYK dependent TNF-α release assay (i.e., via IgG stimulation), THP-1 cells derived from human monocytic cells were obtained from the American Type Culture Collection (ATCC, Manassas, Va.). This cell line was maintained with an Roswell Park Memorial Institute (RPMI) medium (GIBCO™) containing 10 fetal bovine serum (FBS; GIBCO™) and 0.05 mM 2-mercaptoethanol. The THP-1 cells were seeded at 1×10^5 cells/100 μL/well into human IgG (10 μg/well, INVITROGENT™)-coated 96 well culture plate, and serially diluted compound was then added. After an 18-hour incubation period at 37° C., supernatants were collected for the determination of the TNF-α level by enzyme-linked immunosorbent assay (ELISA), and the remaining cells were subjected to an MTT (yellow tetrazolium salt) assay to determine the cytotoxic effects of compound.

T2 sequence (Q05397 376-1052 limits assumed): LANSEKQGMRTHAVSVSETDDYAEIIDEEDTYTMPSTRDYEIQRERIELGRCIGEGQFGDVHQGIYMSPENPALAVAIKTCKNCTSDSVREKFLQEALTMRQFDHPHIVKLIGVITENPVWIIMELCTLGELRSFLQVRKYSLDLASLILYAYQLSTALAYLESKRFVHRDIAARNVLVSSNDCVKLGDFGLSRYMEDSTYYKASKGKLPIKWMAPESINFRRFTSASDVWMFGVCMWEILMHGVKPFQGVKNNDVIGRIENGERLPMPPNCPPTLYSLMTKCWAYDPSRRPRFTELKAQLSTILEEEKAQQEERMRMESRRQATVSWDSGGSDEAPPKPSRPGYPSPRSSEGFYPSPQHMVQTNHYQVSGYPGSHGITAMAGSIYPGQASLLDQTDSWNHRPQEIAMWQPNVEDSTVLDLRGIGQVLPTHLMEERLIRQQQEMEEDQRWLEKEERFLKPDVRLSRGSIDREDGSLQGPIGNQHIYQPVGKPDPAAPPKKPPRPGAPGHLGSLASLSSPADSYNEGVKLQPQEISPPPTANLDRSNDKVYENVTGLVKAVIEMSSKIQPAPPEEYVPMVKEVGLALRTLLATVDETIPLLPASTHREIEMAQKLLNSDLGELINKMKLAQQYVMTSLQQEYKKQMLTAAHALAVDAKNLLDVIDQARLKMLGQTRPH
Chain of JAK2 (O60674 826-1132 limits assumed): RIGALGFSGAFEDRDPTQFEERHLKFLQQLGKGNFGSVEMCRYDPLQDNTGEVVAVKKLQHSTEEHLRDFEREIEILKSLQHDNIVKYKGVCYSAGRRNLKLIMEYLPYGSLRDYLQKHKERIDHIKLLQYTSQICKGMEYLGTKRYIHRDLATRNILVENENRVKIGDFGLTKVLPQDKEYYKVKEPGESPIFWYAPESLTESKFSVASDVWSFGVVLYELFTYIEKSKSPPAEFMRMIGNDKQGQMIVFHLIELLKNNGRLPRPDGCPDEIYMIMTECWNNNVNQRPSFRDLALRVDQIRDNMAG
T1 sequence (P11309 whole entry): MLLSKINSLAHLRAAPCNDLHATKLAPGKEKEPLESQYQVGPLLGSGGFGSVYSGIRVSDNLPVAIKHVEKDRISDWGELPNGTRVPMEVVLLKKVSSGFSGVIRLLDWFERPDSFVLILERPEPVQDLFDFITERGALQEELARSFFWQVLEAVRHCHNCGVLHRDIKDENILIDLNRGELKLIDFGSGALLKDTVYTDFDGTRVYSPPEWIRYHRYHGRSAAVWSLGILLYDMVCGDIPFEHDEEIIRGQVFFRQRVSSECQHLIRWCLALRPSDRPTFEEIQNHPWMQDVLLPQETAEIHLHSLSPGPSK

Row | SMILES | inhibition at 1 µM (PIM1) | IC50 (JAK2) | inhibition at 1 µM (FAK) | inhibition at 0.3 µM ([1]; Homo sapiens, THP-1 cells, IgG stimulation, 0.3 μM, 18-hour incubation) | inhibition at 1 µM ([1]; Homo sapiens, THP-1 cells, IgG stimulation, 1 μM, 18-hour incubation) | percentage inhibition of TNF-α release compared with R406 ([1]; IgG stimulated release, 0.3 μM)
1 | COc1cc(Nc2ncc(C)c(-n3cc(C)c(CO)c3)n2)cc(OC)c1OC [Compound 21, (4-methyl-1-(5-methyl-2-(3,4,5-trimethoxyphenylamino)pyrimidin-4-yl)-1H-pyrrol-3-yl)methanol] | 71.2% | 7.7 nM | 70.7% |  |  | 
2 | Cc1cc(C)cc(Nc2ncc(F)c(-n3cc(C)c(CN4CC[C@@H](O)C4)c3)n2)c1 [Compound 82, (R)-1-((1-(2-(3,5-dimethylphenyl-amino)-5-fluoropyrimidin-4-yl)-4-methyl-1H-pyrrol-3-yl)methyl) pyrrolidin-3-ol] |  |  |  | 49.2% | 91.4% | greater that those exhibited by R406
